Data taken from article PMC3261753 (Biochemistry, 2011).

Tests used:
[1] = test system: wild-type B. anthracis topoisomerase IV; format: biochemical, Bacillus anthracis
[2] = test system: S. pneumoniae gyrase resistance mutations; conditions: cited from earlier work
[3] = test system: S. pneumoniae topoisomerase IV resistance mutations; conditions: cited from earlier work

Row | SMILES | CC3 (concentration of drug required to triple the percent DNA cleavage observed in the absence of drug) [1] | Max. DNA cleavage [1] | Relative potency/efficacy of DNA cleavage enhancement among quinolones [1] | other results
1 | Cc1c(N2CC[C@@H](CN)C2)c(F)cc2c(=O)n(N)c(=O)n(C3CC3)c12 [8-methyl-quinazoline-2,4-dione, 3-Amino-7-[(3S)-3-(aminomethyl)-1-pyrrolidinyl]-1-cyclopropyl-6-fluoro-8-methyl-2,4(1H,3H) -quinazolinedione] | 0.20 µM | 29.0% |  | Mg2+ concentration for half-maximal DNA cleavage [1]: ~ 0.35 mM; Mg2+ concentration for maximal DNA cleavage [1]: ~ 1 mM; Potency relative to ciprofloxacin (as reflected by the CC3 value) [1]: ~ 2.5 times
2 | O=C(O)c1cn(C2CC2)c2cc(N3CCNCC3)c(F)cc2c1=O [Ciprofloxacin] |  |  |  | Drop in potency with mutant enzyme [2]: ~ 8 fold; Drop in potency with mutant enzyme [3]: > 16 fold
3 | C[C@H]1COc2c(N3CCN(C)CC3)c(F)cc3c(=O)c(C(=O)O)cn1c23 [Levofloxacin, levofloxacin] | 1.45 µM | 30.4% | most efficacious | Drug concentration that generated maximal DNA cleavage [1]: 20 µM
4 | C[C@@H]1CN(c2c(F)c(N)c3c(=O)c(C(=O)O)cn(C4CC4)c3c2F)C[C@H](C)N1 [sparfloxacin] |  |  | least potent and efficacious quinolone examined | 
